Data on 12 molecules can be found in ChEMBL document CHEMBL1201862, “PubChem BioAssay data set” (2004).

Holding throughout (experiment): NCI-60 cell line screen, 48 h
Assay [1] has as its system CAKI-1.
The test system of assay [2] is SF-295.
The test system of assay [3] is ACHN.
Assay [4] has as its system KM12.
The subject of assay [5] is SF-539.
Assay [6] has as its system NCI-H23.
For assay [7], the system named is SF-268.
Assay [8] has as its system NCI-H460.
The test system of assay [9] is A498.
In assay [10] the test system is COLO 205.
For assay [11], the system named is OVCAR-4.
Assay [12] relates to SR.
In assay [13] the test system is M14.
Assay [14] deals with SK-MEL-28.
Assay [15] concerns UO-31.
In assay [16] the test system is IGROV-1.
Assay [17] relates to K562.
For assay [18], the system named is HT-29.

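Values below derive from 48-hour exposures of cells grown in 96-well plates, with endpoints linearly interpolated between the two concentrations bracketing the appropriate inhibition level. GI50 is the concentration that inhibits growth by half.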 Calls of active or inactive are those of the source. Cut-off read from the data, not from the text of the source: active = GI50 up to about 1.1 µM and inactive = higher.

As for `CC1=C[C@]2(O)C(=O)[C@H](C)C[C@H]3[C@@H](CC[C@@](C)(O)/C=C\2C1=O)C3(C)C`, the GI50 in assay [1] is 25.4 µM (inactive); in assay [2] it was 24.5 µM (inactive); in assay [3] it was 22.4 µM (inactive); in [4] it was 34.7 µM (inactive); in assay [5], 22.4 µM (inactive); in [6], 25.6 µM (inactive). The GI50 in [7] is 20.7 µM (inactive); in assay [8], 25.5 µM (inactive); in assay [9], 27.4 µM (inactive); in [10], 16.7 µM (inactive); in assay [11] it was 23.6 µM (inactive); in [12] it was 16 µM (inactive). For the same molecule, the GI50 in assay [13] was 17.3 µM (inactive); in assay [14], 18.5 µM (inactive); in [15], 62.5 µM (inactive); in assay [16], 23.4 µM (inactive); in assay [17], > 100 µM (inactive); in assay [18], 28.4 µM (inactive).

`CCC1=C(C(C)=O)[C@@H]2CCCCC[C@@H](C(=O)OC)C2C1=O` (stereo not given in full): the GI50 in assay [1], in assay [2], in [3], in assay [4], in assay [5] and in [6] was > 100 µM (inactive) each time. In addition, the GI50 in assay [7], in assay [8], in assay [9], in [10], in [11] and in assay [12] was > 100 µM (inactive) each time. Further, the GI50 in assay [13], in [14], in [15], in assay [16], in assay [17] and in [18] was > 100 µM (inactive) throughout.

For the molecule `CCOC(=O)C(=O)Nc1cc(Cl)ccc1Cl`, the GI50 in assay [1], in assay [2], in assay [3], in assay [4], in assay [5] and in assay [6] was > 100 µM (inactive) in each case. In addition, the GI50 in [7], in assay [8], in [9], in assay [10], in assay [11] and in assay [12] was > 100 µM (inactive) each time. The GI50 in [13], in assay [14], in [15], in [16], in assay [17] and in assay [18] was > 100 µM (inactive) in each case.

As for `O=S(O)c1cc(Cl)c(O)c(Cl)c1`, the GI50 in assay [3], in assay [4], in assay [5], in assay [6], in [7] and in [8] was > 100 µM (inactive) each time. The GI50 in assay [9], in [11], in assay [12], in assay [13], in [14] and in [15] was > 100 µM (inactive) throughout. In addition, the GI50 in [17] and in assay [18] was > 100 µM (inactive) each time.

As for `CC(C)c1cccc2sc(NC(=O)C(=O)C(C#N)c3cccc4ccccc34)nc12` (stereo not given), the GI50 in [1] is 30.5 µM (inactive); in assay [2] it was 69.7 µM (inactive); in assay [3], 69.8 µM (inactive); in assay [4], > 100 µM (inactive); in assay [5] it was 20.7 µM (inactive); in assay [6], 61.5 µM (inactive). In addition, the GI50 in assay [7] was > 100 µM (inactive); in assay [8] it was > 100 µM (inactive); in assay [9], 73.3 µM (inactive); in [10] it was > 100 µM (inactive); in assay [11], 29.8 µM (inactive); in assay [12], 32.4 µM (inactive). Moreover, the GI50 in assay [13] was > 100 µM (inactive); in [14], > 100 µM (inactive); in assay [15] it was 31.4 µM (inactive); in [16], 77.6 µM (inactive); in assay [18], 77.4 µM (inactive).

Turning to `CCC1CN2CCC3(c4ccccc4)CC(C(=O)OC)=CC1C23` (stereo not given), the GI50 was 18.5 µM (inactive) in [1]; 18.2 µM (inactive) in assay [2]; 16.6 µM (inactive) in assay [3]; 15 µM (inactive) in assay [4]; 16.8 µM (inactive) in assay [5]; 15.4 µM (inactive) in assay [6]. The GI50 in [7] is 14.3 µM (inactive); in assay [8], 17.7 µM (inactive); in [9], 18.6 µM (inactive); in assay [10], 16.9 µM (inactive); in [11], 14.5 µM (inactive); in [12], 41.3 µM (inactive). The GI50 was 14.8 µM (inactive) in assay [13]; 17.7 µM (inactive) in assay [14]; 14.1 µM (inactive) in assay [15]; 20.4 µM (inactive) in assay [16]; 9.46 µM (inactive) in assay [17]; 16.7 µM (inactive) in assay [18].

On to `COc1ccc(/C(C=O)=C(\Cl)c2ccc(OC)c(OC)c2)cc1`, for which the GI50 is > 100 µM (inactive) in [1]; > 100 µM (inactive) in assay [2]; > 100 µM (inactive) in assay [3]; 57.3 µM (inactive) in assay [5]; > 100 µM (inactive) in assay [6]; 46.1 µM (inactive) in assay [7]. The GI50 is > 100 µM (inactive) in assay [8]; 18.4 µM (inactive) in assay [9]; > 100 µM (inactive) in assay [11]; 3.89 µM (inactive) in assay [12]; > 100 µM (inactive) in assay [13]; > 100 µM (inactive) in assay [15]. The GI50 in [16] was > 100 µM (inactive); in assay [17], 62.8 µM (inactive); in assay [18], > 100 µM (inactive).

As for `COc1ccccc1/N=N/c1c(-c2ccccc2)nn(C(=O)CC(=O)Nc2ccccc2Cl)c1-c1ccccc1`, the GI50 in assay [2], in assay [3], in assay [4], in assay [5], in assay [6] and in assay [7] was > 100 µM (inactive) throughout. Moreover, the GI50 in assay [8], in assay [9], in [10], in assay [11], in [12] and in assay [13] was > 100 µM (inactive) in each case. Moreover, the GI50 in assay [14] was > 100 µM (inactive); in [15] it was > 100 µM (inactive); in assay [16], > 100 µM (inactive); in assay [17], > 100 µM (inactive); in [18], 99.3 µM (inactive).

With `N#CC1=C(N)n2c(s/c(=C\c3ccc(Cl)cc3)c2=O)=C(c2nc3ccccc3[nH]2)C1c1ccc(Cl)cc1` (stereo not given), the GI50 is 2.98 µM (inactive) in assay [1]; 2.29 µM (inactive) in assay [3]; 1.42 µM (inactive) in assay [4]; 1.98 µM (inactive) in [5]; 0.426 µM (active) in assay [6]; 2.64 µM (inactive) in assay [7]. Also, the GI50 was 1.85 µM (inactive) in [8]; 1.38 µM (inactive) in assay [9]; 2.51 µM (inactive) in [10]; 2.01 µM (inactive) in assay [11]; 2.17 µM (inactive) in assay [12]; 3.62 µM (inactive) in assay [13]. The GI50 in assay [14] was 1.53 µM (inactive); in assay [15], 4.45 µM (inactive); in [16] it was 2.28 µM (inactive); in assay [17], 1.91 µM (inactive).

On to `CCCCCCCCCCCCCCCCCCC1=C(O)C(=O)C=C(OC)C1=O`, for which the GI50 in [1] is 39.5 µM (inactive); in [2], 36.5 µM (inactive); in assay [3] it was 28.7 µM (inactive); in assay [4], 35.2 µM (inactive); in [5], 45.1 µM (inactive); in [6] it was 26 µM (inactive). Moreover, the GI50 in assay [7] is 38.5 µM (inactive); in [8], 88.7 µM (inactive); in assay [9], > 100 µM (inactive); in assay [10], 48.5 µM (inactive); in [11] it was 46.7 µM (inactive); in assay [12], 43.8 µM (inactive). In addition, the GI50 in [13] is 53.2 µM (inactive); in [14], 36.4 µM (inactive); in [15], 85.5 µM (inactive); in [16], 38.8 µM (inactive); in [18], 88.9 µM (inactive).

In the case of `CC(C)[C@@H](C)CC[C@@H](C)C1CC=C2[C@@H]3CCC4C[C@@H](O[Si](C)(C)C(C)(C)C)CC[C@]4(C)C3CC[C@@]21C` (stereo not given in full), the GI50 in [1], in assay [3], in [4], in assay [5], in assay [7] and in [8] was > 100 µM (inactive) throughout. The GI50 in [9], in [10], in assay [11], in assay [12], in assay [13] and in [14] was > 100 µM (inactive) throughout. Also, the GI50 in assay [15], in assay [16] and in assay [17] was > 100 µM (inactive) each time.

For the molecule `Cc1ccc(SC(CCC(Sc2ccc(C)cc2)Sc2ccc(C)cc2)Sc2ccc(C)cc2)cc1`, the GI50 in [1], in assay [2], in assay [3], in assay [4], in [5] and in assay [6] was > 100 µM (inactive) in each case. The GI50 in [7], in [8], in assay [9], in [10], in [11] and in [12] was > 100 µM (inactive) throughout. Further, the GI50 in [13], in [14], in assay [15], in assay [16] and in assay [17] was > 100 µM (inactive) each time.
